Experimental data: PMC4389443 (Respiratory Research, 2015)
Entries after “also recorded” stand apart in the source; their conditions may differ. Where two headings read alike, the source gives them in different places.

How the values were obtained:
[1] = biological target: T1, VAP-1/SSAO in gonadal fat tissue homogenate (Oryctolagus cuniculus, UniProt A0A5F9CS97); experiment: SSAO activity, gonadal fat tissue homogenate; assay type: biochemical; conditions: rabbit
T1 sequence (A0A5F9CS97 1-763): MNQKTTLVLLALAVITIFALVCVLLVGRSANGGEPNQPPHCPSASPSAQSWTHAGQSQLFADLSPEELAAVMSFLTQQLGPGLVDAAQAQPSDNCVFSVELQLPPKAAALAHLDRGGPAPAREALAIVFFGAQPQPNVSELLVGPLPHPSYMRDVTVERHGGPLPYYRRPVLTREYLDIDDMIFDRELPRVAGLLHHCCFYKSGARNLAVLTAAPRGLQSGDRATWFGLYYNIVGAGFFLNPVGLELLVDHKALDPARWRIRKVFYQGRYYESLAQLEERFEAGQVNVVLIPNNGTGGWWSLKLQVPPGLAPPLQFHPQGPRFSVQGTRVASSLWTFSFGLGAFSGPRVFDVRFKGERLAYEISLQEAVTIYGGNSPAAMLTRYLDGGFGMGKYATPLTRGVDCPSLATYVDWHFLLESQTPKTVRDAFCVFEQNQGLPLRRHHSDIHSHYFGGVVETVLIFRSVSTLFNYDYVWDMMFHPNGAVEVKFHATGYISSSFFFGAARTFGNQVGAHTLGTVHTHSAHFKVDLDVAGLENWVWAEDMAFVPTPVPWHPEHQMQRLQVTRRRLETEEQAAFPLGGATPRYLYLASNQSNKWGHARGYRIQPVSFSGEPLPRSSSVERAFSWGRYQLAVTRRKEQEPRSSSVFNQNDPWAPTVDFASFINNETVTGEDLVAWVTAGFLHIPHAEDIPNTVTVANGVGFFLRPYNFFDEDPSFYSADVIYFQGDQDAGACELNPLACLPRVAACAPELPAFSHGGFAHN

[2] = biological target: T2, Recombinant lysyl oxidase like 2 (Homo sapiens, UniProt Q9Y4K0); experiment: LOXL2 fluorometric enzyme activity assay; assay type: biochemical
T2 construct: purchased R&D systems
T2 sequence (Q9Y4K0 26-774): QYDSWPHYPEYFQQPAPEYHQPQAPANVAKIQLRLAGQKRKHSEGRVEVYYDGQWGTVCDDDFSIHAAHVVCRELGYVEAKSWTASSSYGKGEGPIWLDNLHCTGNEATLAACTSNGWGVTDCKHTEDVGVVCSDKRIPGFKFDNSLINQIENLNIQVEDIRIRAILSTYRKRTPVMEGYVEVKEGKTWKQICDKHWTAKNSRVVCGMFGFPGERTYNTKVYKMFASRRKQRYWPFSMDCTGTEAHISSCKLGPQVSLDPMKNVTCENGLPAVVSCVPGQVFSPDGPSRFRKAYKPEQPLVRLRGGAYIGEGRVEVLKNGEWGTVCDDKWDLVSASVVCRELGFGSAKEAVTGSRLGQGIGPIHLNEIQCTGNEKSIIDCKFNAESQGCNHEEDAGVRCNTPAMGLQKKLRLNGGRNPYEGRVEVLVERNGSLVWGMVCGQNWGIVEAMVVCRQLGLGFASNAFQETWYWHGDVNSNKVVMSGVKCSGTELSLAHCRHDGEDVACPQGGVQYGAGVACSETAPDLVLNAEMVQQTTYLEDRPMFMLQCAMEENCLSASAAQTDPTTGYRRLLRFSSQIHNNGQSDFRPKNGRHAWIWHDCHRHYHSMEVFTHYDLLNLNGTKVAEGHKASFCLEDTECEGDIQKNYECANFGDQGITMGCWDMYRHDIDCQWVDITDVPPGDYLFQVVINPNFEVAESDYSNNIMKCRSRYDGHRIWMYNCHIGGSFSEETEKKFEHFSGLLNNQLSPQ
Description: rhLOXL2 (lysyl oxidase like 2) was purchased from R&D systems and assay was performed in 1.2 M urea, 50 mM sodium borate buffer, pH 8.2. The substrate used was 10 mM putrescine and 100 μM of β-aminopropionitrile (βAPN, Sigma-Aldrich) was added to the low controls.

Plasma stability = assay type: in vitro ADME; conditions: rat plasma, 1 hour incubation
Water solubility = assay type: physicochemical
[3] = Pharmacokinetics in Wistar rats; assay type: in vivo; conditions: rat; for Cmax: read-out: Apparent concentration at curve maximum Cmax
Description: Studies were performed by ICP Firefly, Pharmalegacy and Sundia with local ethics approval. […] Plasma was analyzed for PXS-4728A by high-performance liquid chromatography-mass spectrometry/mass spectrometry. Basic pharmacokinetic parameters were estimated using PK Solutions software (Summit Research Services).

[4] = system: over 100 different macromolecular targets; experiment: Off-target activity, Ricerca lead seeker selectivity panel; conditions: other amine oxidases or over 100 different macromolecular targets
HepG2 cells [5] = experiment: Cell toxicity in HepG2 cells; assay type: cell-based; conditions: highest concentration tested 100 μM
HepG2 cells [6] = experiment: Phospholipidosis in HepG2 cells; assay type: cell-based; conditions: highest concentration tested 100 μM
BALB/c mice [7] = experiment: House dust mite/Rhinovirus exacerbated asthma model; assay type: in vivo, mouse; conditions: 24 hours post RV1b infection
Description: Study performed at the University of Newcastle under local ethics committee. BALB/c mice were sensitized and challenged intranasally to 50 μg of crude HDM extract (Dermatophagoides pteronyssinus extract was obtained from Greer Laboratories) on days 0, 1 and 2 followed by four exposures of 5 μg HDM daily from day 14 to day 17 delivered in 50 μl of sterile saline. Animals were then infected on day 18 with infective Human Rhinovirus 1b RV1B41 (2.5 × 10^6 median tissue culture infective dose) intranasally. Mice were intranasally administered 50 μl infective or ultraviolet light (UV)–inactivated RV1B41. Mice were euthanized 24 hours after the rhinovirus challenge. BAL analysis was performed for total and differential counts and airway hyperreactivity (AHR) was assessed invasively by measurement of total lung resistance and dynamic compliance (BUXCO) in response to methacholine challenge as previously described. […]. Dose of azithromycin was chosen based on previously described findings, in respiratory viral infection models.

BALB/c mice [8] = experiment: LPS airway inflammation, 6 hour time point; conditions: 6 hours after LPS
C57/BL6 mice = experiment: Cecal ligation and puncture (CLP) induced sepsis
[9] = 6 hours, 6 mg.kg^−1 oral 1 hour prior to surgery
[10] = 6 hours, PXS-4728A 6 mg.kg^−1, dexamethasone 5 mg.kg^−1, oral 1 hour prior to surgery

For `CC(C)(C)NC(=O)c1ccc(OC/C(=C/F)CN)cc1` [PXS-4728A], the IC50 [1] was less than 0.01 µM, the IC50 [2] was 10.4 µM and the “Plasma stability, remaining” value (Plasma stability) was greater than 90%. The solubility (Water solubility; Figure 1, read-out: Solubility (H2O)) was greater than 10 mg/mL, the solubility (Water solubility; pH 7.4, aqueous buffer, read-out: Water solubility) was greater than 10 mg/mL and the Cmax ([3]; Wistar, plasma, intravenous 3 mg.kg^−1) was 4.21 µg/mL. For the same compound, the clearance ([3]; Wistar, plasma, intravenous 3 mg.kg^−1, read-out: Clearance CL) was 1.38 L/h/kg, the Cmax ([3]; Wistar, plasma, oral 6 mg.kg^−1) was 0.72 µg/mL and the Tmax ([3]; Wistar, plasma, oral 6 mg.kg^−1, read-out: Time of maximal concentration Tmax) was 49.8 min. For the same compound, the half-life ([3]; Wistar, plasma, iv, 3 mg/kg, intravenous 3 mg.kg^−1, read-out: Apparent half-life, t1/2 (converted)) was roughly 60 min, the bioavailability ([3]; Wistar, plasma, oral, 6 mg.kg^−1, rat, oral 6 mg.kg^−1 / i.v. 3 mg.kg^−1) was greater than 55% and the “Clearance CL” value ([3]; oral 6 mg.kg^−1) was 45 mL·kg/min. The “Bioavailability (%)” value ([3]; oral 6 mg.kg^−1 / i.v. 3 mg.kg^−1) was 55%, the Off-target activity [4] was “does not have any significant off-target activity” and the Cell toxicity (HepG2 cells [5]) was “does not induce cell toxicity”. For the same compound, the Phospholipidosis (HepG2 cells [6]) was “does not induce”, the “Airways hyperreactivity to methacholine challenge” value (BALB/c mice [7]; PXS-4728A 2, azithromycin 25 mg.kg^−1 ip.) was “significantly reduced” and the “Total BALF neutrophils” value (BALB/c mice [7]; PXS-4728A 2, dexamethasone 2, azithromycin 25 mg.kg^−1 ip.) was “reduced”. For the same compound, the “Influx of neutrophils in BALF” value (BALB/c mice [8]; PXS-4728A 0.2 or 2 mg.kg^−1, dexamethasone 10 mg.kg^−1, oral 1 hour prior) was “dampened migration significantly; also recorded: concentration-dependently reduced”, the “Influx of total cells in BALF” value (BALB/c mice [8]; PXS-4728A 0.2 or 2 mg.kg^−1 oral 1 hour prior) was “concentration-dependently reduced” and the “Myeloperoxidase in the lung” value (C57/BL6 mice; [9]) was “reduction”. For the same compound, the “Neutrophils in bronchoalveolar lavage” value (C57/BL6 mice; [9]) was “reduction”, the “Total cells in bronchoalveolar lavage” value (C57/BL6 mice; [9]) was “reduction” and the Peritoneal neutrophils (C57/BL6 mice; [10]) was “not affected”. For the same compound, the “Total peritoneal inflammatory cells” value (C57/BL6 mice; [10]) was “not affected” and the Survival rate (C57/BL6 mice; treated 1 hour prior and daily thereafter, control animals 50%, p = 0.057) was 90%.
